Test results reported in ChEMBL document CHEMBL5150019, “Targeting Extracellular Signal-Regulated Protein Kinase 1/2 (ERK1/2) in Cancer: An Update on Pharmacological Small-Molecule Inhibitors” (J Med Chem, 2022).
pIC50, pKd, pKi: −log10 of the molar value. One block for each molecule: values may come before it.

Assays:
[1] = biological target: T1, Mitogen-activated protein kinase 3 (Homo sapiens, UniProt P27361); experiment: Binding affinity to ERK1 (unknown origin) measured after 20 mins in presence of [gamma33P]ATP by scintillation counter analysis
[2] = biological target: T2, Mitogen-activated protein kinase 1 (Homo sapiens, UniProt P28482); experiment: Binding affinity to ERK2 (unknown origin)
[3] = biological target: T2, Mitogen-activated protein kinase 1; experiment: Inhibition of ERK2 (unknown origin)
[4] = biological target: T1, Mitogen-activated protein kinase 3; experiment: Inhibition of ERK1 (unknown origin)
[5] = biological target: T1, Mitogen-activated protein kinase 3; experiment: Binding affinity to ERK1 (unknown origin)
[6] = test system: UMUC3; experiment: Antiproliferative activity in human UMUC3 cells assessed as cell growth inhibition; format: functional, cell-based
[7] = Antiproliferative activity in mouse MB49 cells assessed as cell growth inhibition; format: functional, cell-based
[8] = test system: Lung cancer cell line; experiment: Antitumor activity against patient-derived Lung cancer cell line xenografted in NMRI nu/nu mouse LXFA-983 model assessed as cell growth inhibition; format: functional, cell-based; conditions: Homo sapiens
[9] = Antitumor activity against patient-derived Pancreatic cancer cell xenografted in NMRI nu/nu mouse PAXF-2059 model assessed as cell growth inhibition; format: functional, cell-based; conditions: Homo sapiens
[10] = Antitumor activity against patient-derived Colorectal cancer cell xenografted in NMRI nu/nu mouse CXF-243 model assessed as cell growth inhibition; format: functional, cell-based; conditions: Homo sapiens
[11] = test system: MCF7; experiment: Antiproliferative activity in human MCF7 cells assessed as cell growth inhibition measured after 24 hrs by MTT assay; format: functional, cell-based; conditions: MCF7, 24 h
[12] = biological target: Mitogen-activated protein kinase 1 (Rattus norvegicus, UniProt P63086); experiment: Binding affinity to rat full-length ERK2 using FQRKTLQRRNLKGLNLNL-XXX-TGPLSPGPF peptide as substrate in presence of [gamma33P]ATP by scintillation counter analysis
Chain of Mitogen-activated protein kinase 1 (Rattus norvegicus, UniProt P63086) (P63086 whole entry): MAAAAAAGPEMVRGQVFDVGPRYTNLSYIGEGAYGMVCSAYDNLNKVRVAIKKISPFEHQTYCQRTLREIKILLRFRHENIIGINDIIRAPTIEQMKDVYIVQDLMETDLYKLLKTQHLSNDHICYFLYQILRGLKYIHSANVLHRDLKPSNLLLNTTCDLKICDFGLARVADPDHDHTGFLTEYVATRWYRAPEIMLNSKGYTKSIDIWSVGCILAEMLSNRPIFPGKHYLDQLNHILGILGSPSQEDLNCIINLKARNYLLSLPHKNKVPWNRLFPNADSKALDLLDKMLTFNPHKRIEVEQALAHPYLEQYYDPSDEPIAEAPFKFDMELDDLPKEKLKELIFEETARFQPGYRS

T1 sequence (P27361 whole entry): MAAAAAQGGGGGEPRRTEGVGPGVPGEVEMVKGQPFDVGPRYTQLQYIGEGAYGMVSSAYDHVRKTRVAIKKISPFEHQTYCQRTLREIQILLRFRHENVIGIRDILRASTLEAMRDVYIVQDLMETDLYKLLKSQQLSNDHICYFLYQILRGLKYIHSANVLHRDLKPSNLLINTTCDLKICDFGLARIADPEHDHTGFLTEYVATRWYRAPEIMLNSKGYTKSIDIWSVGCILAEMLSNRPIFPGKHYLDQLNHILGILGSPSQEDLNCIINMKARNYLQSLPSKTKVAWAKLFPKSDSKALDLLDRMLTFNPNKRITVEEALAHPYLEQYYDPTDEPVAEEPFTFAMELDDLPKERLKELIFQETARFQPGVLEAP
T2 sequence (P28482 whole entry): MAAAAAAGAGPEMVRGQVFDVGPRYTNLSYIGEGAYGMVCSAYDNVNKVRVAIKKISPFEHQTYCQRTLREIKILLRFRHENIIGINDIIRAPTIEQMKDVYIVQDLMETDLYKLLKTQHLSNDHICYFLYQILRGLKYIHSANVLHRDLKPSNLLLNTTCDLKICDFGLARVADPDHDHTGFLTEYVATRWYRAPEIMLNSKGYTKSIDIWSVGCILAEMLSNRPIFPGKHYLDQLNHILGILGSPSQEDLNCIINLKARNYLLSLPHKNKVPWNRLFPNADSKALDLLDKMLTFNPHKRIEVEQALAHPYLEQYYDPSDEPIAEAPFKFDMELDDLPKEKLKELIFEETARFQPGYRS

Structure (SMILES): CC(C)Nc1cc(-c2c[nH]c(C(=O)N[C@H](CO)c3cccc(Cl)c3)c2)c(Cl)cn1 [ULIXERTINIB]
- pKi [1]: > 9.52

Structure (SMILES): Cn1nccc1Nc1nccc(-c2cc3c(s2)C(C)(C)N(CCN2CCOCC2)C3=O)n1 [TEMUTERKIB]
- pIC50 [4]: 8.30
- pKi [2]: 10.19
- pKi [5]: 9.19
- pIC50 [3]: 8.30

Structure (SMILES): N=C(N)NC(=N)NCCc1ccccc1 [PHENFORMIN]
- pIC50 [6]: 3.60
- pIC50 [7]: 3.24

Structure (SMILES): C=CC(=O)Nc1cc(C)ccc1Nc1nc(Nc2cc(OC)ncc2C)ncc1C(F)(F)F
- pIC50 [4]: 8.00
- pIC50 [8]: 6.10
- pIC50 [9]: 6.21
- pIC50 [10]: 6.23
- pIC50 [3]: 8.00

Other lines, results leading:

- pKd [2]: 6.42
- pIC50 [3]: 5.00
Structure (SMILES): N=C(N)NCCC[C@H]1CNC(=N)N1CCN(CCN1C[C@H](CCCNC(=N)N)N(CCCC2CCCCC2)C1=N)CCN1C[C@H](CCCNC(=N)N)N(CCc2cccc(Br)c2)C1=N

- pIC50 [4]: 8.70
- pIC50 [3]: 8.70
Structure (SMILES): Cc1cnc(NC2CCOCC2)nc1-n1cnc(C(=O)N[C@H](CN)c2cc(F)cc(Cl)c2)c1 [ASN007]

- pIC50 [4]: 8.00
- pIC50 [3]: 8.00
Structure (SMILES): O=C1Nc2cc3[nH]nc(-c4ccncc4)c3cc2CN1Cc1ccccc1 [KO-947]

- pIC50 [11]: 5.30
Structure (SMILES): Clc1cc(Cl)cc(C(Cn2ccnc2)OCc2nc3ccccc3s2)c1 (stereo unspecified)

- pIC50 [3]: 6.30
Structure (SMILES): COc1ccc2[nH]cc(/C=C3\C(=O)Nc4ccc(NC(=O)CCN5CCCCC5)cc43)c2c1

- pKi [12]: 5.64
Structure (SMILES): O=[N+]([O-])c1cnc(Sc2nnc(O)n2-c2ccc3c(c2)OCCO3)s1
